{"source": "patent US20260263623A1", "about": "“STAPLED PEPTIDE-ANTIBODY CONJUGATES (SPACS) AND USES THEREOF” (priority 2021, published 2026)", "key": {"[1]": {"test_system": "MCF7 cell line with low HER2 expression (HER2+), p53 WT", "assay": "72 hour cytotoxicity assay (CellTiter-Glo), MCF7", "format": "cell-based", "settings": "wild-type p53 (sensitive to MDM2 inhibition), FIG. 6A", "protocol": "(§1) Cell culture: Cell lines were maintained in appropriate medium supplemented with fetal bovine serum to a final concentration of 10%.\n(§2) 72 hour cytotoxicity assay: Cells were plated in a 96-well format, and after 24 hour incubation, serial dilutions of SPACs from a 1 mg/mL stock, or vehicle, were then added to the cells in a final volume of 100 μl. After incubating at 37° C. for 72 hours, 100 μl of CellTiter-Glo® reagent was added to the cells, and the plates were incubated 15 minutes at room temperature. Luminescence was then measured on a microplate reader."}, "[2]": {"test_system": "HER2+++ p53 mut breast cancer cell line (SK-BR-3)", "assay": "72 hour cytotoxicity assay (CellTiter-Glo), SK-BR-3", "format": "cell-based", "settings": "SK-BR-3, highly expresses HER2, mutated p53 (insensitive to MDM2 inhibition); FIG. 6B", "protocol": "as §1, §2"}}}
{"substance": "Trastuzumab emtansine", "values": [{"measurement": "anti-proliferative activity", "setting": "[1]", "result": "no activity"}, {"measurement": "activity (efficacy vs concentration)", "setting": "[2]", "result": "shows efficacy at relatively low concentration"}]}
